System: T1, cholesterol oxidase from Streptomyces aegyptia NEAE 102
T1 construct: gene choA; native extracellular enzyme purified from culture supernatant (ammonium sulfate, DEAE Sepharose CL-6B); 46 kDa by SDS-PAGE
Assay: peroxidase-coupled H2O2 assay (4-aminoantipyrine/phenol, […] nm); Michaelis-Menten nonlinear regression
Assay type: biochemical
Conditions: pH 7.0 potassium phosphate, 37 °C, Triton X-100; O2 as co-substrate

Km: 152 µM
SMILES: CC(C)CCC[C@@H](C)[C@H]1CC[C@H]2[C@@H]3CC=C4C[C@@H](O)CC[C@]4(C)[C@H]3CC[C@]12C [cholesterol]
